Counter-ions that a name gives are not always drawn. Like-named read-outs stand apart in the source and are kept apart here.
Biological target: T1, human AspH (His6-AspH315–758) (Homo sapiens, UniProt Q12797)
T1 construct: N-Terminally His6-tagged human AspH315–758 (His6-AspH315–758) was produced in Escherichia coli BL21 (DE3) cells; made in house; host or cells: Escherichia coli BL21 (DE3), pET-28a(+) vector
T1 sequence (Q12797 315-758): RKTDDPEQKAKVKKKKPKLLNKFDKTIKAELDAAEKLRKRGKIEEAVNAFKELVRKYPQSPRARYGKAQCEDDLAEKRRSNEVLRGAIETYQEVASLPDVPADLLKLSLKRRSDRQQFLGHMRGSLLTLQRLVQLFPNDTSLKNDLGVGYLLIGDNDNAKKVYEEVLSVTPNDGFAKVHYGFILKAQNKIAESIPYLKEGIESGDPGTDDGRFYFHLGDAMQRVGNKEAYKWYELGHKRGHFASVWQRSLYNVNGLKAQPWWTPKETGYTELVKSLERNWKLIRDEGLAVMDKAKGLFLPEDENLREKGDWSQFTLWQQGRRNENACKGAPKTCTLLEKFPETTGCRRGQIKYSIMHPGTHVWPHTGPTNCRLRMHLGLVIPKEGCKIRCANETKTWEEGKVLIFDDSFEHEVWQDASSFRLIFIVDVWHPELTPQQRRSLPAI
Experiment: SPE-MS AspH inhibition assay (hFX-CP101-119 substrate hydroxylation)
Type: biochemical
Conditions: for Plate 1 (% inhibition): 384-well Plate 1

[1] = AspH-inhibitor screening, 384-well Plate 1, substrate conversion
[2] = AspH-inhibitor screening, Plate 1-duplicate
[3] = AspH-inhibitor screening, Plate 1-duplicate, substrate conversion

## CO[C@@H](C(=O)N1Cc2[nH]nc(NC(=O)c3ccc(N4CCN(C)CC4)cc3)c2C1)c1ccccc1 [PHA-739358 (Danusertib)]
AspH-inhibitor screening
  Plate 1 (% inhibition): 4.40%
[1]
  Plate 1 (% conversion): 47.72%
[2]
  Plate 1-duplicate (% inhibition): 1.12%
[3]
  Plate 1-duplicate (% conversion): 51.48%

## Cc1ccc([N+](=O)[O-])cc1S(=O)(=O)N(C)/N=C/c1cnc2ccc(Br)cn12.Cl [PIK-75 HCl]
AspH-inhibitor screening
  Plate 1 (% inhibition): -11.59%
[1]
  Plate 1 (% conversion): 55.10%
[2]
  Plate 1-duplicate (% inhibition): -0.06%
[3]
  Plate 1-duplicate (% conversion): 52.07%

## CO[C@@H]1[C@H](N(C)C(=O)c2ccccc2)C[C@H]2O[C@]1(C)n1c3ccccc3c3c4c(c5c6ccccc6n2c5c31)C(=O)NC4 [PKC412_Midostaurin]
[1]
  Plate 1 (% conversion): 7.13%
[3]
  Plate 1-duplicate (% conversion): 6.90%

## CCCS(=O)(=O)Nc1ccc(F)c(C(=O)c2c[nH]c3ncc(-c4ccc(Cl)cc4)cc23)c1F [PLX4032_Vemurafenib]
AspH-inhibitor screening
  Plate 1 (% inhibition): 39.76%
[1]
  Plate 1 (% conversion): 31.39%
[2]
  Plate 1-duplicate (% inhibition): 46.15%
[3]
  Plate 1-duplicate (% conversion): 29.15%

## CC(=O)O[C@H]1C(=O)[C@@]2(C)[C@H]([C@H](OC(=O)c3ccccc3)[C@]3(O)C[C@H](OC(=O)[C@H](O)[C@@H](NC(=O)c4ccccc4)c4ccccc4)C(C)=C1C3(C)C)[C@]1(OC(C)=O)CO[C@@H]1C[C@@H]2O [Paclitaxel]
AspH-inhibitor screening
  Plate 1 (% inhibition): 6.60%
[1]
  Plate 1 (% conversion): 46.70%
[2]
  Plate 1-duplicate (% inhibition): -2.08%
[3]
  Plate 1-duplicate (% conversion): 53.08%

## CC(=O)c1c(C)c2cnc(Nc3ccc(N4CCNCC4)cn3)nc2n(C2CCCC2)c1=O [Palbociclib]
AspH-inhibitor screening
  Plate 1 (% inhibition): 13.54%
[1]
  Plate 1 (% conversion): 43.50%
[2]
  Plate 1-duplicate (% inhibition): 4.20%
[3]
  Plate 1-duplicate (% conversion): 49.96%

## Cc1[nH]c2ccccc2c1CCNCc1ccc(/C=C/C(=O)NO)cc1 [Panobinostat]
AspH-inhibitor screening
  Plate 1 (% inhibition): 44.02%
[1]
  Plate 1 (% conversion): 29.42%
[2]
  Plate 1-duplicate (% inhibition): 37.62%
[3]
  Plate 1-duplicate (% conversion): 33.38%

## Cc1ccc(Nc2nccc(N(C)c3ccc4c(C)n(C)nc4c3)n2)cc1S(N)(=O)=O.Cl [Pazopanib hydrochloride]
AspH-inhibitor screening
  Plate 1 (% inhibition): -0.37%
[1]
  Plate 1 (% conversion): 49.92%
[2]
  Plate 1-duplicate (% inhibition): -28.79%
[3]
  Plate 1-duplicate (% conversion): 66.32%

## Cc1ccc(Nc2nccc(N(C)c3ccc4c(C)n(C)nc4c3)n2)cc1S(N)(=O)=O [Pazopanib]
AspH-inhibitor screening
  Plate 1 (% inhibition): 4.18%
[1]
  Plate 1 (% conversion): 47.82%
[2]
  Plate 1-duplicate (% inhibition): -21.51%
[3]
  Plate 1-duplicate (% conversion): 62.71%

## Nc1nc2[nH]cc(CCc3ccc(C(=O)N[C@@H](CCC(=O)[O-])C(=O)[O-])cc3)c2c(=O)[nH]1.O.O.O.O.O.O.O.[Na+].[Na+] [Pemetrexed, Disodium salt, Heptahydrate]
AspH-inhibitor screening
  Plate 1 (% inhibition): 6.49%
[1]
  Plate 1 (% conversion): 46.75%
[2]
  Plate 1-duplicate (% inhibition): 6.63%
[3]
  Plate 1-duplicate (% conversion): 48.75%

## Nc1nc2[nH]cc(CCc3ccc(C(=O)N[C@@H](CCC(=O)O)C(=O)O)cc3)c2c(=O)[nH]1 [Pemetrexed]
AspH-inhibitor screening
  Plate 1 (% inhibition): 17.80%
[1]
  Plate 1 (% conversion): 41.53%
[2]
  Plate 1-duplicate (% inhibition): 10.26%
[3]
  Plate 1-duplicate (% conversion): 46.95%

## OC[C@H]1O[C@@H](n2cnc3c2NC=NC[C@H]3O)C[C@@H]1O [Pentostatin]
AspH-inhibitor screening
  Plate 1 (% inhibition): 10.69%
[1]
  Plate 1 (% conversion): 44.81%
[2]
  Plate 1-duplicate (% inhibition): 8.07%
[3]
  Plate 1-duplicate (% conversion): 48.04%

## CCCCCCCCCCCCCCCCCCOP(=O)([O-])OC1CC[N+](C)(C)CC1 [Perifosine aq/PBS]
AspH-inhibitor screening
  Plate 1 (% inhibition): -1.17%
[1]
  Plate 1 (% conversion): 50.29%
[2]
  Plate 1-duplicate (% inhibition): -2.15%
[3]
  Plate 1-duplicate (% conversion): 53.11%

## CC[C@@H]1C(=O)OC[C@@H]1Cc1cncn1C [Pilocarpine]
AspH-inhibitor screening
  Plate 1 (% inhibition): 3.20%
[1]
  Plate 1 (% conversion): 48.27%
[2]
  Plate 1-duplicate (% inhibition): 17.17%
[3]
  Plate 1-duplicate (% conversion): 43.53%

## O=C(CCBr)N1CCN(C(=O)CCBr)CC1 [Pipobroman]
AspH-inhibitor screening
  Plate 1 (% inhibition): 11.08%
[1]
  Plate 1 (% conversion): 44.63%
[2]
  Plate 1-duplicate (% inhibition): 4.27%
[3]
  Plate 1-duplicate (% conversion): 49.93%

## c1cc(CN2CCCNCCNCCCNCC2)ccc1CN1CCCNCCNCCCNCC1 [Plerixafor]
AspH-inhibitor screening
  Plate 1 (% inhibition): 9.96%
[1]
  Plate 1 (% conversion): 45.15%
[2]
  Plate 1-duplicate (% inhibition): 5.23%
[3]
  Plate 1-duplicate (% conversion): 49.45%

## Nc1cccc2c1C(=O)N(C1CCC(=O)NC1=O)C2=O (centres unmarked) [Pomalidomide]
AspH-inhibitor screening
  Plate 1 (% inhibition): 0.86%
[1]
  Plate 1 (% conversion): 49.35%
[2]
  Plate 1-duplicate (% inhibition): 1.01%
[3]
  Plate 1-duplicate (% conversion): 51.54%

## C#CCC(Cc1cnc2nc(N)nc(N)c2n1)c1ccc(C(=O)N[C@@H](CCC(=O)O)C(=O)O)cc1 (some centres unmarked) [Pralatrexate]
AspH-inhibitor screening
  Plate 1 (% inhibition): 13.78%
[1]
  Plate 1 (% conversion): 43.39%
[2]
  Plate 1-duplicate (% inhibition): 14.13%
[3]
  Plate 1-duplicate (% conversion): 45.03%

## CC[C@H](C)C(=O)O[C@H]1C[C@H](O)C=C2C=C[C@H](C)[C@H](CC[C@@H](O)C[C@@H](O)CC(=O)O)[C@H]21 [Pravastatin]
AspH-inhibitor screening
  Plate 1 (% inhibition): 12.19%
[1]
  Plate 1 (% conversion): 44.12%
[2]
  Plate 1-duplicate (% inhibition): 8.98%
[3]
  Plate 1-duplicate (% conversion): 47.59%

## C[C@]12C=CC(=O)C=C1CC[C@@H]1[C@@H]2[C@@H](O)C[C@@]2(C)[C@H]1CC[C@]2(O)C(=O)CO [Prednisolone]
  Plate 1 (% conversion): 40.92%
  Plate 1-duplicate (% conversion): 46.08%
AspH-inhibitor screening
  Plate 1 (% inhibition): 19.12%
[2]
  Plate 1-duplicate (% inhibition): 12.03%

## C[C@]12C=CC(=O)C=C1CC[C@@H]1[C@@H]2C(=O)C[C@@]2(C)[C@H]1CC[C@]2(O)C(=O)CO [Prednisone]
AspH-inhibitor screening
  Plate 1 (% inhibition): -2.32%
[1]
  Plate 1 (% conversion): 50.82%
[2]
  Plate 1-duplicate (% inhibition): 2.01%
[3]
  Plate 1-duplicate (% conversion): 51.04%

## COCC1(CO)C(=O)C2CCN1CC2 (centres unmarked) [Prima-1 Met]
AspH-inhibitor screening
  Plate 1 (% inhibition): 3.70%
[1]
  Plate 1 (% conversion): 48.04%
[2]
  Plate 1-duplicate (% inhibition): 3.39%
[3]
  Plate 1-duplicate (% conversion): 50.36%

## CNNCc1ccc(C(=O)NC(C)C)cc1 [Procarbazine hydrochloride]
AspH-inhibitor screening
  Plate 1 (% inhibition): 0.24%
[1]
  Plate 1 (% conversion): 49.64%
[2]
  Plate 1-duplicate (% inhibition): 5.52%
[3]
  Plate 1-duplicate (% conversion): 49.30%

## CCN(CC)CCCC(C)Nc1c2ccc(Cl)cc2nc2ccc(OC)cc12 (centres unmarked) [Quinacrine HCl]
AspH-inhibitor screening
  Plate 1 (% inhibition): 11.37%
[1]
  Plate 1 (% conversion): 44.50%
[2]
  Plate 1-duplicate (% inhibition): 8.52%
[3]
  Plate 1-duplicate (% conversion): 47.81%

## COc1cc(Nc2ncc(F)c(Nc3ccc4c(n3)NC(=O)C(C)(C)O4)n2)cc(OC)c1OC [R406_Tamatinib]
AspH-inhibitor screening
  Plate 1 (% inhibition): 11.05%
[1]
  Plate 1 (% conversion): 44.65%
[2]
  Plate 1-duplicate (% inhibition): 0.72%
[3]
  Plate 1-duplicate (% conversion): 51.68%

## Cn1c(Nc2ccc(C(F)(F)F)cc2)nc2cc(Oc3ccnc(-c4ncc(C(F)(F)F)[nH]4)c3)ccc21 [RAF265]
AspH-inhibitor screening
  Plate 1 (% inhibition): 38.69%
[1]
  Plate 1 (% conversion): 31.88%
[2]
  Plate 1-duplicate (% inhibition): 34.01%
[3]
  Plate 1-duplicate (% conversion): 35.17%

## CNC(=O)c1ccc(N2C(=S)N(c3ccc(C#N)c(C(F)(F)F)c3)C(=O)C23CCC3)cc1F [RD162]
AspH-inhibitor screening
  Plate 1 (% inhibition): -1.12%
[1]
  Plate 1 (% conversion): 50.27%
[2]
  Plate 1-duplicate (% inhibition): -2.20%
[3]
  Plate 1-duplicate (% conversion): 53.13%

## COc1cc(F)c(F)c(Nc2ccc(I)cc2F)c1NS(=O)(=O)C1(C[C@H](O)CO)CC1 [RDEA119_Refametinib]
AspH-inhibitor screening
  Plate 1 (% inhibition): 2.93%
[1]
  Plate 1 (% conversion): 48.40%
[2]
  Plate 1-duplicate (% inhibition): 4.05%
[3]
  Plate 1-duplicate (% conversion): 50.03%

Source: PMC7588595, “Small-molecule active pharmaceutical ingredients of approved cancer therapeutics inhibit human aspartate/asparagine-β-hydroxylase” (Bioorganic & Medicinal Chemistry, 2020)
